Among the data in a melting point compilation (Tetko et al.) are melting point values, retold here.

Residues, ends and D or L forms follow the SMILES beside them. *: point of attachment. Boc = CC(C)(C)OC(=O)*

Consider `O=C1CC(c2ccccc2)C(=O)O1` (stereo unspecified), for which the melting point lay within 51 to 55 °C.

In the case of `OCC#Cc1ccc(Cl)cc1`, the melting point is 76 to 78 °C.

Regarding `NNc1c(F)cc(C(=O)NC2CC2)cc1F`, the melting point was 204 to 206 °C.

On to `CC(=O)c1sc(C(C)(C)C)nc1C`, for which the melting point fell in the range of 66 to 68 °C.

Regarding `CC1CCCN(S(=O)(=O)c2ccc(CN)cc2)C1` (stereo unspecified), the melting point lay in the range of 92 to 94 °C.

On to `OCCOc1ccc(O)cc1`, for which the melting point fell in the range of 86 to 88 °C.

Molecule `N#CCn1cc(C(=O)O)c2ccccc21` displayed a melting point of 199 to 201 °C.

The molecule `CC(C)C(=O)Nc1ccc(Cl)c(C(=O)O)c1` displayed a melting point of 229 to 231 °C.

`O=C1CCCN1c1cccc(Br)c1` yielded a melting point of 69 to 71 °C.

Regarding `CCc1c(C)[nH]c2ccc(Oc3ccccc3)cc2c1=O`, the melting point lay in the range of 266 to 268 °C.

With `CCCCCCOc1ccc(C=O)cc1OC`, the melting point is 38 to 42 °C.

Regarding `Cn1c(=O)oc2cc(N)ccc21`, the melting point lay in the range of 150 to 152 °C.

For `O=C(O)c1cc(F)cc(Cl)c1O`, the melting point was 210 to 212 °C.

The molecule `N=c1[nH]cc(S(=O)(=O)O)cc1[N+](=O)[O-]` had a melting point of 317 to 319 °C.

In turn, `O=C1C=CC(=O)N1c1cccc(C(F)(F)F)c1` yielded a melting point of 67 to 69 °C.

Regarding `O=C(O)COC(c1ccccc1)c1ccccc1`, the melting point was in the range of 81 to 83 °C.

Turning to `Cc1cc(N)n(C2CC3CCC2C3)n1` (stereo unspecified), the melting point was in the range of 59 to 61 °C.

On to `O=C(O)c1cc(N2CCCC2=O)cc(C(F)(F)F)c1`, for which the melting point is 188 to 190 °C.

With `Nc1nnc(N)s1`, the melting point was 192 to 194 °C.

With `CCCCCCNC(=O)CCl`, the melting point was 29 to 31 °C.

In turn, `CCc1ccc(C(N)C(=O)O)cc1` (stereo unspecified) gave a melting point of 219 to 221 °C.

For `Clc1nc(-c2ccccn2)nc2scc(-c3ccccc3)c12`, the melting point is 160 to 162 °C.

Take `OC1(Cc2ccc(F)cc2F)CC2CCC(C1)N2` (stereo unspecified): the melting point was in the range of 142 to 144 °C.

In turn, `Cc1ccc(CN(C)C)cc1N` had a melting point of 66 to 68 °C.

`O=C(Cc1ccc2ccccc2c1)NO` gave a melting point of 185 to 187 °C.

For `COc1ccc(Cl)cc1/C=C/C(=O)O`, the melting point lay in the range of 199 to 201 °C.

The molecule `Cc1ccc(=O)n(CC(=O)O)n1` yielded a melting point of 249 to 251 °C.

The molecule `Cc1cc(C(=O)O)c2c(C)nn(-c3ccccc3)c2n1` showed a melting point of 195 to 197 °C.

In turn, `NC(=S)NN=Cc1ccccc1Cl` displayed a melting point of 210 to 212 °C.

`Cc1ccnc(Br)c1[N+](=O)[O-]` showed a melting point of 54 to 56 °C.

For `CCOC(=O)Cc1ccc(C(C)=O)cc1`, the melting point was 55 to 57 °C.

As to `O=C(O)c1cccnc1C1CC1`, the melting point is 196 to 198 °C.

Consider `O=C(O)c1c[nH]c2ncccc12`, for which the melting point lay within 213 to 215 °C.

With `Cc1ccc(-n2cnnn2)cc1N`, the melting point is 171 to 173 °C.

`O=C1c2ccc([N+](=O)[O-])cc2C(=O)N1c1ccncc1` showed a melting point of 259 to 261 °C.

Regarding `O=C(c1cnc(Cl)c(Cl)c1)N1CCOCC1`, the melting point lay within 78 to 80 °C.

Turning to `NC1(c2cccc(F)c2)CCOCC1`, the melting point lay in the range of 48 to 50 °C.

Take `Cc1ccc(C(=O)O)cc1NC(=O)Nc1ccccc1`: the melting point lay within 309 to 311 °C.

As to `Cc1ccc(C)n1-c1ccc(Br)cc1`, the melting point fell in the range of 61 to 63 °C.

`Nc1ccc(Br)c(Cl)c1[N+](=O)[O-]` had a melting point of 106 to 108 °C.

In turn, `Cc1n[nH]c(C)c1S(=O)(=O)N(C)Cc1ccco1` gave a melting point of 160 to 163 °C.

The molecule `CC(C)Oc1c(F)cc(N)cc1F` registered a melting point of 60 to 62 °C.

With `NC(=O)c1cc(-c2cccs2)on1`, the melting point was in the range of 190 to 192 °C.

With `Cc1c(C)n(Cc2ccccc2)c2ncnc(N)c12`, the melting point is 175 to 177 °C.

Molecule `O=C(O)c1oc2ccccc2c1COc1ccccc1Cl` showed a melting point of 190 to 192 °C.

The molecule `COc1ccc2c(C)cc3nnc(S)n3c2c1` showed a melting point of 256 to 258 °C.

The molecule `CC(=O)Nc1ccc(S(=O)(=O)N2CCC(N)CC2)cc1` yielded a melting point of 212 to 214 °C.

`NS(=O)(=O)c1ccccc1OC(F)F`: the melting point was 133 to 135 °C.

The molecule `COc1cc(S(=O)(=O)Nc2ccc3c[nH]nc3c2)ccc1Br` returned a melting point of 199 to 201 °C.

`O=C(O)c1cc(Cl)nc2ccccc12` returned a melting point of 187 to 189 °C.

Take `NC1(c2nn[nH]n2)CCCC1`: the melting point lay in the range of 229 to 231 °C.

As for `CC(C)(C)C(=O)NCc1ccc(C(=O)CCl)s1`, the melting point fell in the range of 102 to 104 °C.

In turn, `NCc1ccc(NC(=O)c2ccco2)cc1` showed a melting point of 102 to 104 °C.

`CN(CC(N)=O)C1CCCC1`: the melting point lay within 78 to 80 °C.

The molecule `O=C(NO)c1ccc(Br)s1` had a melting point of 152 to 160 °C.

For `Nc1ccc(CC2NC(=O)NC2=O)cc1` (stereo unspecified), the melting point lay within 152 to 154 °C.

`Cn1c(Cl)c(C=O)c2cc(C=O)ccc21` displayed a melting point of 164 to 166 °C.

`O=C1CCCc2ccc(F)cc21`: the melting point was in the range of 56 to 58 °C.

`COc1cc(C=O)c(-c2ccccc2)cc1OC` had a melting point of 133 to 135 °C.

In turn, `CN(CC(=O)NC(C)(C)C)CC(N)=S` came in with a melting point of 123 to 125 °C.

As for `O=CC1=C(N2CCOCC2)C(=Cc2ccccc2)CC1`, the melting point fell in the range of 141 to 143 °C.

`COC(=O)c1ccc(C)c(S(=O)(=O)Cl)c1` had a melting point of 45 to 47 °C.

With `CCCCS(=O)(=O)Nc1ccc(S(=O)(=O)Cl)cc1`, the melting point fell in the range of 123 to 125 °C.

`COCCn1cnnc1S` had a melting point of 79 to 81 °C.

The molecule `CSc1nccn1-c1cccc(C(=O)O)c1` yielded a melting point of 225 to 227 °C.

As for `Oc1cc2c(nn1)CCNC2`, the melting point lay within 211 to 213 °C.

In turn, `CS(=O)(=O)Cc1cc(N)ccc1Cl` displayed a melting point of 135 to 137 °C.

For `CC(=O)Nc1cc(Cl)ccc1N`, the melting point was 137 to 139 °C.

`O=C(O)CNC(=O)CCC1CCCC1` registered a melting point of 112 to 114 °C.

Take `CC(C)(C)OC(=O)NCC(=O)NCC(=O)O` (Boc-Gly-Gly-OH): the melting point fell in the range of 119 to 121 °C.

With `O=S(=O)(c1ccc(Cl)nc1)N1CCC(Cc2ccccc2)CC1`, the melting point fell in the range of 153 to 157 °C.

Molecule `COc1cc(C(=O)O)cc(OC)c1OC(F)F` yielded a melting point of 179 to 181 °C.

For `CCN(CC)S(=O)(=O)c1ccc(O)c([N+](=O)[O-])c1`, the melting point lay within 82 to 84 °C.

For the molecule `O=C(c1cc(F)ccc1F)c1ccccc1Cl`, the melting point lay in the range of 67 to 69 °C.

The molecule `CNc1ccc(-c2ccccc2)nn1` displayed a melting point of 157 to 159 °C.

`Cc1ccc2c(CC(=O)O)cc(=O)oc2c1` displayed a melting point of 209 to 211 °C.

`Cc1ccc(OCCC(=O)O)cc1C` displayed a melting point of 155 to 157 °C.

`CCc1n[nH]c(N)c1Br`: the melting point lay in the range of 117 to 119 °C.

Regarding `NC(=O)Nc1cccc(Br)c1`, the melting point is 163 to 167 °C.

`NC1CCN(c2c(F)cccc2F)C1=O` (stereo unspecified) returned a melting point of 62 to 64 °C.

`CCc1ccc(S(=O)(=O)O)cc1N` returned a melting point of 268 to 270 °C.

The molecule `NC1(C(=O)O)CCS(=O)(=O)CC1` displayed a melting point of 294 to 296 °C.

For the molecule `Cc1cc([N+](=O)[O-])cc(S(=O)(=O)Cl)c1C`, the melting point was 66 to 68 °C.

With `COc1cccc(N2CC(C(=O)O)CC2=O)c1` (stereo unspecified), the melting point fell in the range of 166 to 168 °C.

`COc1ccc(C(=O)CBr)cc1Cl` registered a melting point of 99 to 101 °C.

Consider `CNC(=O)COc1ccc(N)c(F)c1`, for which the melting point was in the range of 81 to 83 °C.

Regarding `NS(=O)(=O)c1cc(Cl)c(Cl)c(C(=O)O)c1`, the melting point lay within 237 to 239 °C.

`O=C(O)Cc1csc(-c2ccccc2)n1` gave a melting point of 89 to 91 °C.

In turn, `CC(=O)NCc1ccc(Br)cc1` displayed a melting point of 114 to 116 °C.

As to `CCCS(=O)(=O)N1CCC(=NO)CC1`, the melting point lay within 146 to 148 °C.

Take `Cc1cc(F)c(S(=O)(=O)Cl)cc1[N+](=O)[O-]`: the melting point lay in the range of 64 to 66 °C.

The molecule `CC(=O)c1c(C)nc2ccccc2c1N` came in with a melting point of 152 to 154 °C.

With `Cc1ccc(NC(=O)CCl)c(Cl)c1`, the melting point is 98 to 100 °C.

`Cc1c(C(=O)O)nnn1C1CCN(C(=O)OC(C)(C)C)CC1` returned a melting point of 179 to 181 °C.

For `Cc1noc(C)c1S(=O)(=O)NCCC(=O)O`, the melting point lay within 105 to 118 °C.

Turning to `CS(=O)(=O)Nc1ccc(Br)cc1Cl`, the melting point fell in the range of 98 to 100 °C.

In turn, `CCOC(=O)C1CCN(C(=O)c2ccccc2)CC1` showed a melting point of 84 to 86 °C.

`CCC(C)C(NC(=O)c1ccccc1)C(=O)O` (stereo unspecified) displayed a melting point of 117 to 119 °C.

Consider `CC1(C)NC(=O)N(Cc2ccc(C#N)cc2)C1=O`, for which the melting point fell in the range of 167 to 169 °C.

On to `Cc1csc(-c2cccc(N)c2)n1`, for which the melting point is 82 to 84 °C.

Molecule `O=C(c1ccccc1)c1cc(Br)ccc1F` came in with a melting point of 67 to 69 °C.

`NS(=O)(=O)c1ccc(F)cc1C(=O)O` showed a melting point of 218 to 220 °C.

On to `O=C1CSC(NC2CCCC2)=N1`, for which the melting point was 110 to 112 °C.

The molecule `COC(=O)c1c(C)n(C2CC2)c2ccc(O)cc12` yielded a melting point of 193 to 195 °C.

For `Nc1nc(Br)cn2ccnc12`, the melting point was in the range of 215 to 217 °C.

With `O=[N+]([O-])c1ccc(C2NCCS2)cc1` (stereo unspecified), the melting point fell in the range of 124 to 126 °C.

Molecule `COc1ccc(-c2cc(C(=O)NN)c3ccccc3n2)cc1OC` had a melting point of 181 to 183 °C.

`CCCN(C)S(N)(=O)=O` registered a melting point of 32 to 34 °C.

The molecule `COc1ccccc1-c1nnc(N)o1` gave a melting point of 175 to 177 °C.

Take `COC(=O)c1ccc(COc2ccc(C=O)cc2OC)cc1`: the melting point is 129 to 131 °C.

`O=C(O)CC1=C(c2cccs2)N2CCN=C2S1`: the melting point is 220 to 222 °C.

`CC1=CSC(=C(C#N)N=O)N1` returned a melting point of 180 to 182 °C.

Molecule `CN(C)CC(N)=NO` came in with a melting point of 135 to 137 °C.

Molecule `CC(C)(C)CCCC(=O)O` returned a melting point of 36 to 38 °C.

With `O=C(O)c1cccc(F)c1Sc1ccccc1`, the melting point lay in the range of 161 to 163 °C.

`CCN(C(C)=O)C(C(=O)O)c1ccc(F)c(F)c1` (stereo unspecified) gave a melting point of 205 to 207 °C.

In turn, `Cc1nc(CC(C)C)sc1C(=O)O` registered a melting point of 169 to 171 °C.

The molecule `Cc1cccc(Oc2ccc(Cl)cc2N)c1` had a melting point of 93 to 97 °C.

Regarding `Cc1csc(=O)n1CCBr`, the melting point was in the range of 47 to 51 °C.

`CC1CCC(C(=O)O)C2C(=O)N(c3ccccc3)C(=O)C12` (stereo unspecified) gave a melting point of 182 to 184 °C.

`Nn1c(S)nnc1-c1ccc(Br)cc1`: the melting point lay within 202 to 204 °C.

As usually defined, the melting point is the temperature, or range, at which the solid turns liquid.
